Read-outs that look alike come from different tables or passages of the source.
Tests used:
HCV genotype 1b replicon = assay: HCV replicon assay, genotype 1b replicon EC50; assay type: cell-based, Hepatitis C virus; conditions: read-out: EC50 [gt-1b]
Procedure: Measuring Compound Inhibitory Potency (Genotype 1b Replicon EC50 (nM))
Measurement of inhibition by compounds was performed using the HCV replicon system. Several different replicons encoding different HCV genotypes or mutations were used. In addition, potency measurements were made using different formats of the replicon assay, including different ways of measurements and different plating formats. See Jan M. Vrolijk et al., A replicons-based bioassay for the measurement of interferons in patients with chronic hepatitis C, 110 J. VIROLOGICAL METHODS 201 (2003); Steven S. Carroll et al., Inhibition of Hepatitis C Virus RNA Replication by 2′-Modified Nucleoside Analogs, 278(14) J. BIOLOGICAL CHEMISTRY 11979 (2003). However, the underlying principles are common to all of these determinations, and are outlined below.
Stable neomycin phosphotransferase encoding replicon-harboring cell lines were used, so all cell lines were maintained under G418 selection prior to the assay. In some cases the cell lines encoded a luciferase:Neo^r fusion and could be assayed either directly by determination of RNA copy number, or indirectly through measurement of the luciferase activity.
To initiate an assay, replicon cells were plated in the presence of a dilution series of test compound in the absence of G418. Typically, the assays were performed in a 96-well plate format for manual operation, or a 384 well plate in an automated assay. Replicon cells and compound were incubated for 24-48 hours, depending on the assay. At the end of the assay, cells are washed free of media and compound and then lysed. For direct quantitation, RNA levels were measured by ^32P-probe hybridization and protection, or in a TAQMAN based assay and normalized to cellular cyclophilin A RNA levels. In some cases, luciferase activity was measured using a conventional luciferase assay. In all cases EC50 determinations were calculated as a percent of a DMSO control by fitting the data to a four parameter fit function.

[1] = molecular target: HCV NS3/4A protease genotype 1b (Hepatitis C virus genotype 1b, UniProt P26663); assay: HCV NS3/4A protease time-resolved fluorescence (TRF) assay, Ki against genotype 1b; assay type: biochemical
How it was run: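 First, protease (genotype 1b 0.2 nM, A156T 0.4 nM, genotype 3a 0.025 nM) is preincubated 30 min with inhibitor. Next, 25 nM TRF substrate starts the reaction, run 2.5 h at room temperature. Finally, europium fluorescence is read and Ki calculated from IC50.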

[2] = Hepatitis C virus, genotype 1b replicon
[3] = IC50 [gt-1b] (nM), NS3/4A genotype 1b, enzyme 0.2 nM
[4] = Hepatitis C virus, HCV replicon, genotype 1b
[5] = IC50 [gt-1b], NS3/4A protease TRF assay, genotype 1b enzyme 0.2 nM

SMILES	EC50 (HCV genotype 1b replicon; [2]) [nM]	IC50 [1, 3] [nM]	EC50 (HCV genotype 1b replicon; [4]) [nM]	IC50 [1, 5] [nM]	EC50 (HCV genotype 1b replicon; genotype 1b replicon) [nM]
Cc1nc2ccccc2c2c1O[C@]1(CC2)C[C@H]2C(=O)N[C@]3(C(=O)NS(=O)(=O)C4(C)CC4)C[C@H]3/C=C\CCCCC[C@H](N(CCc3ccccc3)CCc3ccccc3)C(=O)N2C1 [Example 173, (2R,6S,12Z,13aS,14aR,16aS)-6-[bis(2-phenylethyl)amino]-5′-methyl-N-[(1-methylcyclopropyl)sulfonyl]-5,16-dioxo-1,1′,2′,6,7,8,9,10,11,13a,14,15,16,16a-tetradecahydrospiro[cyclopropa[e]pyrrolo[1,2-a][1,4]diazacyclopentadecine-2,3′-pyrano[2,3-c]quinoline]-14a(5H)-carboxamide]	> 100	6.27			
CC(C)(C)OC(=O)N[C@H]1CCCCC/C=C\[C@@H]2C[C@@]2(C(=O)NS(=O)(=O)C2(C)CC2)NC(=O)[C@@H]2C[C@]3(CCc4c(c(C(F)(F)F)nc5ccc(OCCO)cc45)O3)CN2C1=O [Example 60, tert-Butyl ((2R,6S,13aS,14aR,16aS,Z)-9′-(2-hydroxyethoxy)-14a-(((1-methylcyclopropyl)sulfonyl)carbamoyl)-5,16-dioxo-5′-(trifluoromethyl)-1′,2′,3,5,6,7,8,9,10,11,13a, 14,14a,15,16,16a-hexadecahydro-1H-spiro[cyclopropa[e]pyrrolo[1,2-a][1,4]diazacyclopentadecine-2,3′-pyrano[2,3-c]quinolin]-6-yl)carbamate]	1.23	0.009			
CCc1nc2ccc(OC)cc2c2c1O[C@]1(CC2)C[C@H]2C(=O)N[C@]3(C(=O)NS(=O)(=O)C4(C)CC4)C[C@H]3/C=C\CCCCC[C@H](NC(=O)c3ccn(CC)n3)C(=O)N2C1 [Example 467, (2R,6S,12Z,13aS,14aR,16aS)-5′-ethyl-6-{[(1-ethyl-1H-pyrazol-3-yl)carbonyl]amino}-9′-methoxy-N-[(1-methylcyclopropyl)sulfonyl]-5,16-dioxo-1,1′,2′,6,7,8,9,10,11,13a,14,15,16,16a-tetradecahydrospiro[cyclopropa[e]pyrrolo[1,2-a][1,4]diazacyclopentadecine-2,3′-pyrano[2,3-c]quinoline]-14a(5H)-carboxamide]			4.71	0.028	
Cc1nc2cc(F)c(F)cc2c2c1O[C@]1(CC2)C[C@H]2C(=O)N[C@]3(C(=O)NS(=O)(=O)C4(C)CC4)C[C@H]3/C=C\CCCCC[C@H](NC(=O)OCC3CC3)C(=O)N2C1 [Example 224, cyclopropylmethyl [(2R,6S,12Z,13aS,14aR,16aS)-8′,9′-difluoro-5′-methyl-14a-{[(1-methylcyclopropyl)sulfonyl]carbamoyl}-5,16-dioxo-1,1′,2′,5,6,7,8,9,10,11,13a,14,14a,15,16,16a-hexadecahydrospiro[cyclopropa[e]pyrrolo[1,2-a][1,4]diazacyclopentadecine-2,3′-pyrano[2,3-c]quinolin]-6-yl]carbamate]	6.73	0.019			
Cc1nc2ccc(Cl)cc2c2c1O[C@]1(CC2)C[C@H]2C(=O)N[C@]3(C(=O)NS(=O)(=O)C4(C)CC4)C[C@H]3/C=C\CCCCC[C@H](NC(=O)OC(C)(C)C(F)(F)F)C(=O)N2C1 [Example 333, 1,1,1-trifluoro-2-methylpropan-2-yl [(2R,6S,12Z,13aS,14aR,16aS)-9′-chloro-5′-methyl-14a-{[(1-methylcyclopropyl)sulfonyl]carbamoyl}-5,16-dioxo-1,1′,2′,5,6,7,8,9,10,11,13a,14,14a,15,16,16a-hexadecahydrospiro[cyclopropa[e]pyrrolo[1,2-a][1,4]diazacyclopentadecine-2,3′-pyrano[2,3-c]quinolin]-6-yl]carbamate]	10.3	0.01			
COc1ccc2nc(C(F)(F)F)c3c(c2c1)CC[C@]1(C[C@H]2C(=O)N[C@]4(C(=O)NS(=O)(=O)C5(C)CC5)C[C@H]4/C=C\CCCCC[C@H](NC(=O)OC4CCC4)C(=O)N2C1)O3 [Example 450, cyclobutyl [(2R,6S,12Z,13aS,14aR,16aS)-9′-methoxy-14a-{[(1-methylcyclopropyl)sulfonyl]carbamoyl}-5,16-dioxo-5′-(trifluoromethyl)-1,1′,2′,5,6,7,8,9,10,11,13a,14,14a,15,16,16a-hexadecahydrospiro[cyclopropa[e]pyrrolo[1,2-a][1,4]diazacyclopentadecine-2,3′-pyrano[2,3-c]quinolin]-6-yl]carbamate]			1.69	0.019	
Cc1nc2ccc(OC(F)(F)F)cc2c2c1O[C@]1(CC2)C[C@H]2C(=O)N[C@]3(C(=O)NS(=O)(=O)C4(C)CC4)C[C@H]3/C=C\CCCCC[C@H](NC(=O)OC(C)(C)C)C(=O)N2C1 [Example 1, tert-butyl (2R,6S,13aS,14aR,16aS,Z)-5′-methyl-14a-(1-methylcyclopropylsulfonylcarbamoyl)-5,16-dioxo-9′-(trifluoromethoxy)-1′,2′,3,5,6,7,8,9,10,11,13a,14,14a,15, 16,16a-hexadecahydro-1H-spiro[cyclopropa[e]pyrrolo[1,2-a][1,4]diazacyclopentadecine-2,3′-pyrano[2,3-c]quinoline]-6-ylcarbamate]	1.47	0.013			
CCc1ccc2nc(C)c3c(c2c1)C(F)C[C@]1(C[C@H]2C(=O)N[C@]4(C(=O)NS(=O)(=O)C5(C)CC5)C[C@H]4/C=C\CCCCC[C@H](NC(=O)OC(C)(C)C)C(=O)N2C1)O3 (single isomer, unassigned) [Example 315]		1.29			294
COc1ccc2nc(C(F)(F)F)c3c(c2c1)[C@H](O)C[C@]1(C[C@H]2C(=O)N[C@]4(C(=O)NS(=O)(=O)C5(C)CC5)C[C@H]4/C=C\CCCCC[C@H](NC(=O)OC(C)(C)C)C(=O)N2C1)O3 [Example 54, tert-Butyl [(1′R,2S,6S,12Z,13aS,14aR,16aS)-1′-hydroxy-9′-methoxy-14a-{[(1-methylcyclopropyl)sulfonyl]carbamoyl}-5,16-dioxo-5′-(trifluoromethyl) -1,1′,2′,5,6,7,8,9,10,11,13a,14,14a,15,16,16a-hexadecahydrospiro[cyclopropa[e]pyrrolo[1,2-a][1,4]diazacyclopentadecine-2,3′-pyrano[2,3-c]quinolin]-6-yl]carbamate]	1.18	0.012			
CCc1nc2ccc(OC)cc2c2c1O[C@]1(CC2)C[C@H]2C(=O)N[C@]3(C(=O)NS(=O)(=O)C4(C)CC4)C[C@H]3/C=C\CCCCC[C@H](NC(=O)O[C@@H](C)C(C)C)C(=O)N2C1 [Example 434, (2S)-3-methylbutan-2-yl [(2R,6S,12Z,13aS,14aR,16aS)-5′-ethyl-9′-methoxy-14a-{[(1-methylcyclopropyl)sulfonyl]carbamoyl}-5,16-dioxo-1,1′,2′,5,6,7,8,9,10,11,13a,14,14a,15,16,16a-hexadecahydrospiro[cyclopropa[e]pyrrolo[1,2-a][1,4]diazacyclopentadecine-2,3′-pyrano[2,3-c]quinolin]-6-yl]carbamate]			1.78	0.012	
COc1ccc2nc(C(C)C)c3c(c2c1)CC[C@]1(C[C@H]2C(=O)N[C@]4(C(=O)NS(=O)(=O)C5(C)CC5)C[C@H]4/C=C\CCCCC[C@H](NC(=O)OC4CCCC4)C(=O)N2C1)O3 [Example 155, cyclopentyl [(2R,6S,12Z,13aS,14aR,16aS)-9′-methoxy-14a-{[(1-methylcyclopropyl)sulfonyl]carbamoyl}-5,16-dioxo-5′-(propan-2-yl)-1,1′,2′,5,6,7,8,9,10,11,13a,14,14a,15,16,16a-hexadecahydrospiro[cyclopropa[e]pyrrolo[1,2-a][1,4]diazacyclopentadecine-2,3′-pyrano[2,3-c]quinolin]-6-yl]carbamate]	1.17	0.015			
CC1(S(=O)(=O)NC(=O)[C@@]23C[C@H]2/C=C\CCCCC[C@H](NC(=O)OC2CCCCC2)C(=O)N2C[C@@]4(CCc5c(c(C6CC6)nc6c(F)cccc56)O4)C[C@H]2C(=O)N3)CC1 [Example 166, cyclohexyl [(2R,6S,12Z,13aS,14aR,16aS)-5′-cyclopropyl-7′-fluoro-14a-{[(1-methylcyclopropyl)sulfonyl]carbamoyl}-5,16-dioxo-1,1′,2′,5,6,7,8,9,10,11,13a,14,14a,15,16,16a-hexadecahydrospiro[cyclopropa[e]pyrrolo[1,2-a][1,4]diazacyclopentadecine-2,3′-pyrano[2,3-c]quinolin]-6-yl]carbamate]	2.4	0.019			

Source: US8987195B2 (priority 2012, dated 2015)
